Source: patent US10150755B2, “ASK1 inhibitor compounds and uses thereof” (Seal Rock Therapeutics, Inc., priority 2017, dated 2018)

How the values were obtained:
ASK1 = ASK1 (Homo sapiens (Human), UniProt Q99683); experiment: ASK1 Kinase Assay (Promega ASK1 Kinase Enzyme System, ADP-Glo); type: biochemical; conditions: enzyme 50 nM, ATP 10 μM
Method: The ASK1 enzymatic assay was run following Promega ASK1 Kinase Enzyme System (Cat #V3881). The kit provides the protocol, enzymes and all reagents necessary to run an assay. Firstly, the compounds, enzyme, substrate and ATP were diluted in provided assay buffer. The final concentration of the enzyme was 50 nM, substrate (Myelin basic protein) 1 μg/ml and ATP 10 μM. The compound and the enzyme were pre-incubated in a 384 well white solid bottom plate (Greiner, Cat#784075) for 10 minutes. After incubation, the substrate and ATP were added and incubated for further 60 minutes. After 60 minutes, ADP-Glo™ was added and plate was incubated for another 40 minutes. After 40 minutes, Kinase Detection Reagent was added and the plate was incubated for 45 minutes. After 45 minutes, plate was read on Perkin Elmer EnVision using luminescence read (0.5 seconds/well).

[1] = test system: LPS-induced TNFalpha in Human PBMCs; experiment: Inhibition of LPS-induced TNFalpha in Human PBMCs; type: cell-based; conditions: PBMC, 100 ng/ml LPS, 6 hr, read-out: TNFa Inhibition IC50
Method: Cryopreserved human PBMCs were obtained from AllCells (cat# PB003F). After thawing/dilution protocols using RPMI medium supplemented with 5% FBS (heat inactivated), 100 ul/well of 1×10^6 cells/ml were plated into 96 well tissue culture plates (Corning). Cells were then pre-incubated for 1 hr at 37° C. in humidified 5% CO2 and 95% air with test compounds diluted in DMSO (final DMSO concentration 0.3%). Each compound was tested at 10 concentrations in duplicate wells. After the pre-incubation, 100 ng/ml LPS (E. Coli; Sigma) in RPMI media with 5% FBS was added for a 6 hr incubation at 37° C. in humidified 5% CO2 and 95% air. Controls on each plate included cells and LPS only, cells and media only (no LPS), and media only. After the 6 hr incubation, plates were centrifuged and the supernatants transferred to a new plate and frozen for subsequent TNFalpha analysis. Human TNFalpha was analyzed by ELISA according to the manufacturer's instructions (BD Sciences, BD OptEIA™ Cat#550610) and analyzed on a SpectraMax M series (Molecular Devices) microplate reader at OD 450 nm. IC50s were calculated using XLFit4 curve fitting software (IDBS) and a 4-parameter one-site sigmoid dose response fit.

ASK1, sequence (Q99683 649-946 limits assumed): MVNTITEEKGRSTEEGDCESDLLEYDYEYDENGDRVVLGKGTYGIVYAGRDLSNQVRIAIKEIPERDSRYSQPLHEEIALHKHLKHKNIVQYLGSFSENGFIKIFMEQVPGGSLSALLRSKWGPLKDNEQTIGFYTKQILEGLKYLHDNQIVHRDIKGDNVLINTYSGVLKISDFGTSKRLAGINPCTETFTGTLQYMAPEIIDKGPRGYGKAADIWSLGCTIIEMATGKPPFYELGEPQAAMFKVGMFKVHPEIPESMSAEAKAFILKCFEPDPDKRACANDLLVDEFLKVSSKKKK

SMILES | IC50 (ASK1) [nM] | IC50 [1] [nM]
O=C(c1ccc2c(c1)CN(c1cccc(-c3nncn3C3CC3)n1)C2=O)N1CCCCC1 [Compound 11, 2-(6-(4-cyclopropyl-4H-1,2,4-triazol-3-yl)pyridin-2-yl)-5-(piperidine-1-carbonyl)isoindolin-1-one] | < 200 | 2000 to 10000
O=C(c1ccc2c(c1)CN(c1cccc(-c3nncn3C3CC3)n1)C2=O)N1CCC(O)CC1 [Compound 12, 2-(6-(4-cyclopropyl-4H-1,2,4-triazol-3-yl)pyridin-2-yl)-5-(4-hydroxypiperidine-1-carbonyl)isoindolin-1-one] | < 200 | > 10
CC1(O)CCN(C(=O)c2ccc3c(c2)CN(c2cccc(-c4nncn4C4CC4)n2)C3=O)CC1 [Compound 13, 2-(6-(4-cyclopropyl-4H-1,2,4-triazol-3-yl)pyridin-2-yl)-5-(4-hydroxy-4-methylpiperidine-1-carbonyl)isoindolin-1-one] | < 200 | > 10
COC1CCN(C(=O)c2ccc3c(c2)CN(c2cccc(-c4nncn4C4CC4)n2)C3=O)CC1 [Compound 14, 2-(6-(4-cyclopropyl-4H-1,2,4-triazol-3-yl)pyridin-2-yl)-5-(4-methoxypiperidine-1-carbonyl)isoindolin-1-one] | < 200 | 2000 to 10000
CN(C)C1CCN(C(=O)c2ccc3c(c2)CN(c2cccc(-c4nncn4C4CC4)n2)C3=O)CC1 [Compound 15, 2-(6-(4-cyclopropyl-4H-1,2,4-triazol-3-yl)pyridin-2-yl)-5-(4-(dimethylamino)piperidine-1-carbonyl)isoindolin-1-one] | < 200 | 2000 to 10000
CC(=O)N1CCN(C(=O)c2ccc3c(c2)CN(c2cccc(-c4nncn4C4CC4)n2)C3=O)CC1 [Compound 16, 5-(4-acetylpiperazine-1-carbonyl)-2-(6-(4-cyclopropyl-4H-1,2,4-triazol-3-yl)pyridin-2-yl)isoindolin-1-one] | < 200 | > 10
CC(=O)NC1CCN(C(=O)c2ccc3c(c2)CN(c2cccc(-c4nncn4C4CC4)n2)C3=O)CC1 [Compound 17, N-(1-(2-(6-(4-cyclopropyl-4H-1,2,4-triazol-3-yl)pyridin-2-yl)-1-oxoisoindoline-5-carbonyl)piperidin-4-yl)acetamide] | < 200 | > 10
O=C1c2cc(-c3cncnc3)ccc2CN1c1cccc(-c2nncn2C2CC2)n1 [Compound 43, 2-(6-(4-cyclopropyl-4H-1,2,4-triazol-3-yl)pyridin-2-yl)-6-(pyrimidin-5-yl)isooindolin-1-one] | < 200 | 2000 to 10000
Cc1ncc(-c2ccc3c(c2)C(=O)N(c2cccc(-c4nncn4C4CC4)n2)C3)cn1 [Compound 44, 2-(6-(4-cyclopropyl-4H-1,2,4-triazol-3-yl)pyridin-2-yl)-6-(2-methylpyrimidin-5-yl)isoindolin-1-one] | < 200 | 2000 to 10000
CC(C)Oc1cc2c(cc1-c1cccnc1)C(=O)N(c1cccc(-c3nncn3C3CC3)n1)C2 [Compound 68, 2-(6-(4-cyclopropyl-4H-1,2,4-triazol-3-yl)pyridin-2-yl)-5-isopropoxy-6-(pyridin-3-yl)isoindolin-1-one] | < 200 | < 2000
O=C1c2cc(-c3cccnc3)c(OC3CCCC3)cc2CN1c1cccc(-c2nncn2C2CC2)n1 [Compound 69, 5-(Cyclopentyloxy)-2-(6-(4-cyclopropyl-4H-1,2,4-triazol-3-yl)pyridin-2-yl)-6-(pyridin-3-yl)isoindolin-1-one] | < 200 | < 2000
O=C(c1cc2c(cc1-c1cccnc1)C(=O)N(c1cccc(-c3nncn3C3CC3)n1)C2)N1CCCC1 [Compound 71, 2-(6-(4-cyclopropyl-4H-1,2,4-triazol-3-yl)pyridin-2-yl)-6-(pyridin-3-yl)-5-(pyrrolidine-1-carbonyl)isoindolin-1-one] | < 200 | 2000 to 10000
